# Source: patent publication US4226865A, “Method of treating depression” (Hoffmann-La Roche Inc., priority 1976, dated 1980)
# How the values were obtained:
# monoamine oxidase (MAO) = experiment: MAO inhibiting activity in liver homogenates of rats one hour after p.o. administration; assay type: in vivo; conditions: p.o. in the rat; MAO activity measured in liver homogenates one hour after administration; 60 min
# Protocol: (§1) Thus, the thiobenzamides of formula I to be tested were administered p.o. to rats. One hour after the administration, the rats were killed and the MAO inhibiting activity in the liver homogenates was measured according to the method in Biochem. Pharmacol. 12, pp. 1439-1441 (1963). The thus determined activity of representative thiobenzamides of formula I as well as their toxicity is evident from the ED50 values (μmol/kg, p.o. in the rat) or LD50 values (mg/kg, p.o. in the mouse) listed in the Table which follows: […]
# [1] = Toxicity (LD50), p.o. in the mouse; conditions: in vivo, po
# Protocol: as §1
Compound,ED50 (MAO inhibiting activity) (monoamine oxidase (MAO)),LD50 [1]
S=C(NCCN1CCOCC1)c1ccc(Br)cc1 [p-bromo-N-(2-morpholinoethyl)-thiobenzamide],2 µmol/kg,1250 to 2500 mg/kg
S=C(NCCN1CCOCC1)c1ccc(Cl)cc1 [p-chloro-N-(2-morpholinoethyl)thiobenzamide],2 µmol/kg,1250 to 2500 mg/kg
CC(C)(C)c1ccc(C(=S)NCCN2CCOCC2)cc1 [p-t-butyl-N-(2-morpholinoethyl)-thiobenzamide],10 µmol/kg,> 5000 mg/kg
